This test relates to HCV replicon. Nature of the test: HCV replicon replication assay (NPT level by captured ELISA). In kind it is cell-based. The following applies: Hepatitis C virus, 72 h; Huh-7 HCV replicon-containing cells, three days incubation; read-out: Activity (inhibition of HCV replicon replication). In outline: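 Huh-7 cells carrying HCV subgenomic replicon (NS3–NS5B, neo reporter) treated 3 days at 37 °C with 6 concentrations from 10 to 0.03 micromolar in G418-free medium, equal DMSO across wells. Replication measured on day four as NPTII level by in-cell captured ELISA on fixed cells; interferon alpha as positive control.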
(In general: Replicon systems follow genome replication, usually without infectious particles.)

Where only a bound is given, the exact number is not on record here.

With `CCCCCOCCCc1ccc(Nc2nc(-c3cccnc3)c(F)s2)cc1C(F)(F)F` [Cmp 220, 5-fluoro-N-(4-(3-(pentyloxy)propyl)-3-(trifluoromethyl)phenyl)-4-(pyridin-3-yl)thiazol-2-amine], the EC50 is < 1 µM. The result for `Cc1ccc(Nc2nc(-c3cccnc3)c(F)s2)cc1OCCOc1ccccc1` [Cmp 58, 5-fluoro-N-(4-methyl-3-(2-phenoxyethoxy)phenyl)-4-(pyridin-3-yl)thiazol-2-amine] reads < 1 µM. In the case of `FC(F)(F)c1cc(Nc2nc(-c3cccnc3)cs2)ccc1Oc1ccccc1` [Cmp 47, N-(4-phenoxy-3-(trifluoromethyl)phenyl)-4-(pyridin-3-yl)thiazol-2-amine], the EC50 was < 1 µM.

`CCCCCCCCOc1ccc(Nc2nc(-c3cncc(C#N)c3)c(F)s2)cc1C(F)(F)F` [Cmp 181, 5-(5-fluoro-2-(4-(octyloxy)-3-(trifluoromethyl)phenylamino)thiazol-4-yl)nicotinonitrile]: the EC50 was < 1 µM. For `Fc1ccc(-c2nc(Nc3ccc(OCCCC4CCCC4)c(C(F)(F)F)c3)sc2F)cn1` [Cmp 173, N-(4-(3-cyclopentylpropoxy)-3-(trifluoromethyl)phenyl)-5-fluoro-4-(6-fluoropyridin-3-yl)thiazol-2-amine], the EC50 was < 1 µM. The result for `Cc1ccc(Nc2nc(-c3ccc(F)cc3)c(F)s2)cc1OCCOc1ccccc1` [Cmp 60, 5-fluoro-4-(4-fluorophenyl)-N-(4-methyl-3-(2-phenoxyethoxy)phenyl)thiazol-2-amine] reads < 1 µM; that for `CCCCCCCCc1ccc(Nc2nc(-c3ccc(F)nc3)c(F)s2)cc1C(F)(F)F` [Cmp 174, 5-fluoro-4-(6-fluoropyridin-3-yl)-N-(4-octyl-3-(trifluoromethyl)phenyl)thiazol-2-amine], < 1 µM; that for `CC/C=C\CCCCOc1ccc(Nc2nc(-c3cccnc3)c(F)s2)cc1C(F)(F)F` [Cmp 165, (Z)-5-fluoro-N-(4-(oct-5-enyloxy)-3-(trifluoromethyl)phenyl)-4-(pyridin-3-yl)thiazol-2-amine], < 1 µM. `CCc1ccc(Oc2ccc(Nc3nc(-c4cccnc4)c(F)s3)cc2C(C)=O)cc1` [Cmp 131, 1-(2-(4-ethylphenoxy)-5-(5-fluoro-4-(pyridin-3-yl)thiazol-2-ylamino)phenyl)ethanone]: the EC50 was < 1 µM. For `Fc1sc(Nc2ccc(C(F)(F)F)c(Oc3ccccc3)c2)nc1-c1cccnc1` [Cmp 108, 5-fluoro-N-(3-phenoxy-4-(trifluoromethyl)phenyl)-4-(pyridin-3-yl)thiazol-2-amine], the EC50 is < 1 µM.

Consider `Fc1sc(Nc2ccc(OC3Cc4ccccc4C3)c(C(F)(F)F)c2)nc1-c1cccnc1` [Cmp 176, N-(4-(2,3-dihydro-1H-inden-2-yloxy)-3-(trifluoromethyl)phenyl)-5-fluoro-4-(pyridin-3-yl)thiazol-2-amine], for which the EC50 was < 1 µM. The result for `CCCCCc1nc2ccc(Nc3nc(-c4cccnc4)cs3)cc2o1` [Cmp 66, 2-pentyl-N-(4-(pyridin-3-yl)thiazol-2-yl)benzo[d]oxazol-6-amine] reads < 1 µM. In the case of `CCCCCCCc1nc2cc(Nc3nc(-c4cnc(OC)nc4)c(F)s3)ccc2o1` [Cmp 57, N-(5-fluoro-4-(2-methoxypyrimidin-5-yl)thiazol-2-yl)-2-heptylbenzo[d]oxazol-5-amine] it was < 1 µM; in that of `N#Cc1ccc(Oc2ccc(Nc3nc(-c4cccnc4)c(F)s3)cc2C(F)(F)F)cc1` [Cmp 99, 4-(4-(5-fluoro-4-(pyridin-3-yl)thiazol-2-ylamino)-2-(trifluoromethyl)phenoxy)benzonitrile], < 1 µM; in that of `CCCCCCCCc1ccc(Nc2nc(-c3cnc(OC)nc3)c(F)s2)cc1C(F)(F)F` [Cmp 36, 5-fluoro-4-(2-methoxypyrimidin-5-yl)-N-(4-octyl-3-(trifluoromethyl)phenyl)thiazol-2-amine], < 1 µM. The result for `FC(F)(F)c1cc(Nc2nc(-c3cccnc3)cs2)ccc1CCCOc1ccc(Cl)cc1` [Cmp 103, N-(4-(3-(4-chlorophenoxy)propyl)-3-(trifluoromethyl)phenyl)-4-(pyridin-3-yl)thiazol-2-amine] reads < 1 µM; that for `CCCCCCCCOc1ccc(Nc2nc(-c3cnccn3)c(Cl)s2)cc1C(F)(F)F` [Cmp 162, 5-chloro-N-(4-(octyloxy)-3-(trifluoromethyl)phenyl)-4-(pyrazin-2-yl)thiazol-2-amine], < 1 µM; that for `CCCCCCCCOc1c(F)cc(Nc2nc(-c3cccnc3)cs2)cc1F` [Cmp 110, N-(3,5-difluoro-4-(octyloxy)phenyl)-4-(pyridin-3-yl)thiazol-2-amine], < 1 µM. On to `CCCCCCCCOc1ccc(Nc2nc(-c3ccc(O)c(C(N)=O)c3)c(Cl)s2)cc1C(F)(F)F` [Cmp 186, 5-(5-chloro-2-(4-(octyloxy)-3-(trifluoromethyl)phenylamino)thiazol-4-yl)-2-hydroxybenzamide], for which the EC50 is < 1 µM.

On to `CCCCCCCCc1cc2cc(Nc3nc(-c4cncc(C#N)c4)cs3)ccc2o1` [Cmp 203, 5-(2-(2-octylbenzofuran-5-ylamino)thiazol-4-yl)nicotinonitrile], for which the EC50 was < 1 µM. The result for `CCCCCCC[C@@H](C)Oc1ccc(Nc2nc(-c3cccnc3)c(F)s2)cc1C(F)(F)F` [Cmp 233, (R)-5-fluoro-N-(4-(nonan-2-yloxy)-3-(trifluoromethyl)phenyl)-4-(pyridin-3-yl)thiazol-2-amine] reads < 1 µM; that for `Fc1sc(Nc2ccc(CCCCCOC3CCCC3)c(C(F)(F)F)c2)nc1-c1cccnc1` [Cmp 230, N-(4-(5-(cyclopentyloxy)pentyl)-3-(trifluoromethyl)phenyl)-5-fluoro-4-(pyridin-3-yl)thiazol-2-amine], < 1 µM; that for `Cc1ccc(OCCCCc2ccc(Nc3nc(-c4cccnc4)c(F)s3)cc2C(F)(F)F)cc1` [Cmp 116, 5-fluoro-4-(pyridin-3-yl)-N-(4-(4-(p-tolyloxy)butyl)-3-(trifluoromethyl)phenyl)thiazol-2-amine], < 1 µM. In the case of `CCCCCCCCc1ccc(Nc2nc(-c3ccc(O)nc3)cs2)cc1C(F)(F)F` [Cmp 100, 5-(2-(4-octyl-3-(trifluoromethyl)phenylamino)thiazol-4-yl)pyridin-2-ol] it was < 1 µM. The result for `Fc1ccc(CCCCCc2ccc(Nc3nc(-c4cccnc4)c(F)s3)cc2C(F)(F)F)cc1` [Cmp 217, 5-fluoro-N-(4-(5-(4-fluorophenyl)pentyl)-3-(trifluoromethyl)phenyl)-4-(pyridin-3-yl)thiazol-2-amine] reads < 1 µM; that for `CCCCCCCCc1ccc(Nc2nc(-c3ccc4nncn4c3)cs2)cc1C(F)(F)F` [Cmp 178, 4-([1,2,4]triazolo[4,3-a]pyridin-6-yl)-N-(4-octyl-3-(trifluoromethyl)phenyl)thiazol-2-amine], < 1 µM.

Consider `CCCCCCCCOc1ccc(Nc2ncc(Br)s2)cc1C(F)(F)F` [Cmp 143, 5-bromo-N-(4-(octyloxy)-3-(trifluoromethyl)phenyl)thiazol-2-amine], for which the EC50 was < 1 µM. In the case of `CCCCCCCCOc1cc(Nc2nc(-c3ccc(F)cc3)cs2)ccc1C(F)(F)F` [Cmp 75, 4-(4-fluorophenyl)-N-(3-(octyloxy)-4-(trifluoromethyl)phenyl)thiazol-2-amine] it was < 1 µM.

(Values after US8183263B2 (priority 2007, dated 2012).)
